As usually defined, the inhibition is the percentage by which the read-out fell short of the control.

Consider 45 compounds from US20260297108A1, “NOVEL INHIBITORS OF PIKFYVE AND METHODS USING SAME” (priority 2023, published 2026).

Series [1] relates to IL-12 and IL-23 synthesis. As to conditions: background; cited from earlier work.
In the next series the test system is enveloped viruses. As to conditions: background; cited from earlier work.
The target of series [2] is T1, PIKFYVE (Homo sapiens, UniProt Q9Y2I7). The arrangement: T7 phage display fusion, or alternatively DNA tag for qPCR (general KINOMEscan description); purchased Eurofins. As to conditions: background; cited from earlier work.
A further series has as its system SARS-CoV2. Nature of the series: SARS-COV-2 IFA, inhibition of CPE (strain USA-WA1/2020). As to conditions: CC50 divided by EC50. The class given is cell-based.
In another series the test system is SARS-CoV2 (Delta). Briefly: SARS-COV-2 IFA, inhibition of CPE (Delta strain B.1.617). In kind it is cell-based, SARS-COV-2 Delta strain B.1.617. As to conditions: CC50 divided by EC50.
The test system of a further series is Influenza A. Nature of the series: Influenza A, inhibition of CPE. As to conditions: CC50 divided by EC50. The class given is cell-based, influenza A strain California/07/09 (H1N1) pdm09.
For the next series, the system named is Marburg. In kind it is cell-based, Marburg virus (Angola strain).
The test system of the next series is MDCK cells. As to conditions: dog.
The nature of series [3]: in vitro. As to conditions: dog, mdck.
The nature of series [4]: in vitro. As to conditions: monkey, vero cells.
Series [5] concerns the target T1, PIKFYVE. Briefly: KINOMEscan Kinase Assay (PIKFYVE inhibitory activity).
Where [6] appears, read: read-out: PIKfyve Activity (% inhibition).
Where [7] appears, read: read-out: PIKfyve Activity (PIKfyve % inhibition).

Read-outs that look alike come from different tables or passages of the source. Where only a bound is given, the exact number is not on record here.

T1 sequence (Q9Y2I7 whole entry, the tested form may be a part): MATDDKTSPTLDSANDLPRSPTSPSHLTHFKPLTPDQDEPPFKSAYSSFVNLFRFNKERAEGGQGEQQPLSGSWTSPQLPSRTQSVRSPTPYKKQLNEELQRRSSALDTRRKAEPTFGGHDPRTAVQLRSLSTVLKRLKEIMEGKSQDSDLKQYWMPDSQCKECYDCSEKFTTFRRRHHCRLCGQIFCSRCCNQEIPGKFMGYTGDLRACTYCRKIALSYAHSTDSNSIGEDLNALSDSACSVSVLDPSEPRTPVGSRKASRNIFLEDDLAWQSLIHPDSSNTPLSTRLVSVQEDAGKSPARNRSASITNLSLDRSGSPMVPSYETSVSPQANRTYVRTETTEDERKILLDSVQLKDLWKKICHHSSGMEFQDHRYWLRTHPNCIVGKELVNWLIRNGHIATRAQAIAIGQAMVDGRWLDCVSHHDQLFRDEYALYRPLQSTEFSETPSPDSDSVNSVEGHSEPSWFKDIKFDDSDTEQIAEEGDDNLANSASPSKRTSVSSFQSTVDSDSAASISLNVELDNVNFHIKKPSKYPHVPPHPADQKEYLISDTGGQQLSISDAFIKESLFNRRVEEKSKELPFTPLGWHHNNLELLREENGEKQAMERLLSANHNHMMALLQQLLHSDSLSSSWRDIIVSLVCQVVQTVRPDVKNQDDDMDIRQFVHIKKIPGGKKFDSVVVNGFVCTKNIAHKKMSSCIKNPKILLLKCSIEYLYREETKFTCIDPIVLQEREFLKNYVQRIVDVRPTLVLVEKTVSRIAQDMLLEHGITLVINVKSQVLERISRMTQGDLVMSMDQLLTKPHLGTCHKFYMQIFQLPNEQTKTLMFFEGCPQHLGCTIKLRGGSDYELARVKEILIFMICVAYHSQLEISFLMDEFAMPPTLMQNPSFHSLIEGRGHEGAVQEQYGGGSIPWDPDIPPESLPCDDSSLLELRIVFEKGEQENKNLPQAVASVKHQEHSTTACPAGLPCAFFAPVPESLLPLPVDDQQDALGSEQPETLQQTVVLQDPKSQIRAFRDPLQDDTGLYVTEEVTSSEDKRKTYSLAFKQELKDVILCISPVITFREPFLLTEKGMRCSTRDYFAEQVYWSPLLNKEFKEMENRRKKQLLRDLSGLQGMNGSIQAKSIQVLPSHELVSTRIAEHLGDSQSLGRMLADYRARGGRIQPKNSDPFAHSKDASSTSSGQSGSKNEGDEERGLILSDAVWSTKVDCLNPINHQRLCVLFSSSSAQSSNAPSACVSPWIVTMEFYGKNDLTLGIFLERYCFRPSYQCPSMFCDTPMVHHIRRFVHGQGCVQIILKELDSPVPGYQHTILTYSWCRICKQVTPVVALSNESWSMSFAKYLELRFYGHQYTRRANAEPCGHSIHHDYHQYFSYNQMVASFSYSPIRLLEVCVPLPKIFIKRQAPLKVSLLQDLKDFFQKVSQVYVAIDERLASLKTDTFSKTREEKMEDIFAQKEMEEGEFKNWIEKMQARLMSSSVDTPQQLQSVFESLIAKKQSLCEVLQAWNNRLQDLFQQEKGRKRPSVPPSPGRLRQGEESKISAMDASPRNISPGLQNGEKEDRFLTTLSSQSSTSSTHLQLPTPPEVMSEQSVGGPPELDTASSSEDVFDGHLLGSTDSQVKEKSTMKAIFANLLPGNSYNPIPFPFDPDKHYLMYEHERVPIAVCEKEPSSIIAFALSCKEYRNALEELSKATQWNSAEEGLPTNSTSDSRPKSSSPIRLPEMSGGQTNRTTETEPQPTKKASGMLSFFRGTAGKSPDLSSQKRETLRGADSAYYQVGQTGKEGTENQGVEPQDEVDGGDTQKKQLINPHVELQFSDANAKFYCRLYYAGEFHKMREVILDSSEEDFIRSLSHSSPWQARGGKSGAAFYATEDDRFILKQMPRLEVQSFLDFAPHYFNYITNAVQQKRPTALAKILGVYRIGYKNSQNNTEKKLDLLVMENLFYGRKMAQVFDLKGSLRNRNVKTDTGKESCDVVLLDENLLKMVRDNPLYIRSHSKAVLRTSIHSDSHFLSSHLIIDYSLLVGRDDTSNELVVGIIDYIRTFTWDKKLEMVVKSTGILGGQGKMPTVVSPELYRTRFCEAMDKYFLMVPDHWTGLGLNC

For the compound `Cc1cccc(/C=N/Nc2cc(N3CCOCC3)nc(OCCc3ccccn3)n2)c1` [Apilimod], in series [1], the “inhibitor of IL-12 and IL-23 synthesis” value was “inhibitor of IL-12 and IL-23 synthesis”. Besides, the “prevention of infection by enveloped viruses” value in the series on enveloped viruses was “prevent infection by some of these enveloped viruses”. Besides, the PIKFYVE inhibitory activity entry on PIKFYVE [2] is listed as “potent PIKFYVE inhibitory activity”.

Take `Cc1cccc(-c2ccn(-c3nc(N4CCOCC4)c4sc(CN5CCN(S(C)(=O)=O)CC5)cc4n3)n2)c1` [Ex. 2, 4-(6-((4-(methylsulfonyl)piperazin-1-yl)methyl)-2-(3-(m-tolyl)-1H-pyrazol-1-yl)thieno[3,2-d]pyrimidin-4-yl)morpholine]: the “Selectivity Index” value with SARS-CoV2 is recorded as >150; with SARS-CoV2 (Delta), >1000; in the series with Influenza A it was >150; in the series on Marburg it was >15000. Moreover, the CC50 with MDCK cells is > 150 µM; in the series “in vitro [3]” it was > 3 µM. Also, the CC50 at 24 h in the series “in vitro [4]” was > 3 µM.

For the compound `Cc1cccc(-c2nc(-c3cc(N4CCOCC4)c4sc(CN5CCN(S(C)(=O)=O)CC5)cc4n3)cs2)c1` [Ex. 244], at PIKFYVE [5] (setting [6]), the inhibition at 0.001 µM is 37%.

Take `CNC(=O)c1cc2nc(-n3ccc(-c4cccc(C)c4)n3)cc(N3CCOCC3)c2s1` [Ex. 247]: the inhibition at 0.001 µM at PIKFYVE [5] (setting [7]) was in the range of 52 to 100%.

As to `Cc1cccc(-c2ccn(-c3cc(N4CCOCC4)c4sc(C(=O)NC5(C)COC5)cc4n3)n2)c1` [Ex. 252], the inhibition at 0.001 µM on PIKFYVE [5] (setting [7]) fell in the range of 52 to 100%.

`Cc1cccc(-c2ccn(-c3cc(N4CCOCC4)c4sc(C(=O)NCCN(C)C)cc4n3)n2)c1` [Ex. 255]: the inhibition at 0.001 µM on PIKFYVE [5] (setting [7]) was in the range of 52 to 100%.

For the compound `Cc1cccc(-c2ccn(-c3cc(N4CCOCC4)c4sc(NC(=O)C5CCN(C)C5)cc4n3)n2)c1` (centres unmarked) [Ex. 271], the inhibition at 0.001 µM on PIKFYVE [5] (setting [7]) was 52 to 100%.

For `Cc1cccc(-c2ccn(-c3cc(N4CCOCC4)c4sc(NC(=O)C5CCCN(C)C5)cc4n3)n2)c1` (centres unmarked) [Ex. 272], the inhibition at 0.001 µM on PIKFYVE [5] (setting [6]) was 44%.

On to `Cc1cccc(-c2ccn(-c3nc(N4CCOCC4)c4nc(C(=O)NC5CC5)[nH]c4n3)n2)c1` [Ex. 274], for which, at PIKFYVE [5] (setting [7]), the inhibition at 0.001 µM was 52 to 100%.

As for `Cc1cccc(-c2ccn(-c3nc(N4CCOCC4)c4nc(C(=O)NC5COC5)[nH]c4n3)n2)c1` [Ex. 275], the inhibition at 0.001 µM at PIKFYVE [5] (setting [6]) stood at 40%.

Turning to `Cc1cccc(-c2ccn(-c3cc(N4CCOCC4)c4sc(NC(=O)C5CNC5)cc4n3)n2)c1` [Ex. 278], the inhibition at 0.001 µM at PIKFYVE [5] (setting [7]) is 52 to 100%.

Consider `Cc1cccc(-c2ccn(-c3cc(N4CCOCC4)c4nc(CN5CCN(S(=O)(=O)C(C)C)CC5)[nH]c4n3)n2)c1` [Ex. 279], for which, at PIKFYVE [5] (setting [7]), the inhibition at 0.001 µM was in the range of 52 to 100%.

As for `Cc1cccc(-c2ccn(-c3cc(N4CCOCC4)c4nc(CN5CCN(S(=O)(=O)C6CC6)CC5)[nH]c4n3)n2)c1` [Ex. 280], the inhibition at 0.001 µM at PIKFYVE [5] (setting [6]) was determined as 46%.

As for `Cc1cccc(-c2ccn(-c3cc(N4CCOCC4)c4nc(CN5CC6CC5CN6S(C)(=O)=O)[nH]c4n3)n2)c1` (centres unmarked) [Ex. 281], the inhibition at 0.001 µM on PIKFYVE [5] (setting [7]) was in the range of 52 to 100%.

For `Cc1cccc(-c2ccn(-c3nc(N4CCOCC4)c4nc(CN5CCN(S(C)(=N)=O)CC5)[nH]c4n3)n2)c1` (centres unmarked) [Ex. 282], the inhibition at 0.001 µM on PIKFYVE [5] (setting [6]) was determined as 41%.

As to `Cc1cccc(-c2ccn(-c3cc(N4CCOCC4)c4sc(CN5CCN(S(C)(=N)=O)CC5)cc4n3)n2)c1` (centres unmarked) [Ex. 284], the inhibition at 0.001 µM on PIKFYVE [5] (setting [7]) lay within 52 to 100%.

On to `Cc1cccc(-c2ccn(-c3cc(N4CCOCC4)c4nc(CN5C6CC5CN(S(C)(=O)=O)C6)[nH]c4n3)n2)c1` [Ex. 285], for which the inhibition at 0.001 µM at PIKFYVE [5] (setting [7]) lay in the range of 52 to 100%.

For `Cc1cccc(-c2ccn(-c3nc(N4CCOCC4)c4sc(C(=O)N5CCN(S(C)(=O)=O)CC5)cc4n3)n2)c1` [Ex. 286], the inhibition at 0.001 µM at PIKFYVE [5] (setting [7]) lay within 52 to 100%.

`Cc1cccc(-c2ccn(-c3nc(N4CCOCC4)c4nc(C(=O)N5CCN(S(C)(=O)=O)CC5)n(C)c4n3)n2)c1` [Ex. 287]: the inhibition at 0.001 µM on PIKFYVE [5] (setting [7]) lay within 52 to 100%.

On to `Cc1cccc(-c2ccn(-c3cc(N4CCOCC4)c4sc(C(=O)N5CCN(S(C)(=O)=O)CC5)c(C)c4n3)n2)c1` [Ex. 291], for which, at PIKFYVE [5] (setting [7]), the inhibition at 0.001 µM lay in the range of 52 to 100%.

As for `Cc1cccc(-c2ccn(-c3nc4[nH]c(C(=O)N5CCN(S(C)(=O)=O)CC5)nc4c(N4CCOCC4)c3F)n2)c1` [Ex. 292], the inhibition at 0.001 µM on PIKFYVE [5] (setting [6]) amounted to 13%.

Regarding `Cc1cccc(-c2ccn(-c3cc(N4CCOCC4)c4sc(C(N)=O)cc4n3)n2)c1` [Ex. 293], the inhibition at 0.001 µM at PIKFYVE [5] (setting [7]) was 52 to 100%.

For the compound `CC(=O)N1CCN(Cc2cc3nc(-n4ccc(-c5cccc(C)c5)n4)cc(N4CCOCC4)c3s2)CC1` [Ex. 295], the inhibition at 0.001 µM on PIKFYVE [5] (setting [7]) lay within 52 to 100%.

On to `CC(=O)NC1CCN(Cc2cc3nc(-n4ccc(-c5cccc(C)c5)n4)cc(N4CCOCC4)c3s2)CC1` [Ex. 296], for which, at PIKFYVE [5] (setting [7]), the inhibition at 0.001 µM was in the range of 52 to 100%.

With `Cc1cccc(-c2ccn(-c3cc(N4CCOCC4)c4sc(CN5CCC(C(N)=O)CC5)cc4n3)n2)c1` [Ex. 297], the inhibition at 0.001 µM at PIKFYVE [5] (setting [7]) is 52 to 100%.

In the case of `Cc1cccc(-c2ccn(-c3cc(N4CCOCC4)c4nc(C(=O)NC5COC5)[nH]c4n3)n2)c1` [Ex. 298], at PIKFYVE [5] (setting [7]), the inhibition at 0.001 µM lay in the range of 52 to 100%.

Take `Cc1cccc(-c2ccn(-c3cc(N4CCOCC4)c4sc(C(=O)Nc5ccccn5)cc4n3)n2)c1` [Ex. 299]: the inhibition at 0.001 µM at PIKFYVE [5] (setting [7]) lay within 52 to 100%.

On to `CC(=O)N1CCN(Cc2nc3c(N4CCOCC4)cc(-n4ccc(-c5cccc(C)c5)n4)nc3[nH]2)CC1` [Ex. 301], for which the inhibition at 0.001 µM on PIKFYVE [5] (setting [7]) was in the range of 52 to 100%.

As for `CC(=O)NC1CCN(Cc2nc3c(N4CCOCC4)cc(-n4ccc(-c5cccc(C)c5)n4)nc3[nH]2)CC1` [Ex. 302], the inhibition at 0.001 µM on PIKFYVE [5] (setting [7]) lay within 52 to 100%.

With `Cc1cccc(-c2ccn(-c3cc(N4CCOCC4)c4nc(CN5CCC(C(N)=O)CC5)[nH]c4n3)n2)c1` [Ex. 303], the inhibition at 0.001 µM at PIKFYVE [5] (setting [7]) was 52 to 100%.

For the compound `Cc1cccc(-c2ccn(-c3cc(N4CCOCC4)c4nc(C(=O)N5CCN(S(C)(=O)=O)CC5)n(C)c4n3)n2)c1` [Ex. 304], the inhibition at 0.001 µM at PIKFYVE [5] (setting [6]) was 46%.

Turning to `Cc1cccc(-c2ccn(-c3cc(N4CCOCC4)c4nc(C(=O)NC5CC5)[nH]c4n3)n2)c1` [Ex. 305], the inhibition at 0.001 µM on PIKFYVE [5] (setting [7]) lay in the range of 52 to 100%.

With `Cc1cccc(-c2ccn(-c3nc4[nH]c(C(=O)N5CCC(C(C)(C)O)CC5)nc4c(N4CCOCC4)c3F)n2)c1` [Ex. 306], the inhibition at 0.003 µM at PIKFYVE [5] (setting [6]) turned out to be 9%.

Regarding `Cc1cccc(-c2ccn(-c3nc4[nH]c(C(=O)NC5CC5)nc4c(N4CCOCC4)c3F)n2)c1` [Ex. 307], the inhibition at 0.003 µM on PIKFYVE [5] (setting [6]) came out at 0%.

For `Cc1cccc(-c2ccn(-c3cc(N4CCOCC4)c4nc(C(=O)NC5COC5)n(C)c4n3)n2)c1` [Ex. 308], the inhibition at 0.001 µM on PIKFYVE [5] (setting [7]) fell in the range of 52 to 100%.

`Cc1cccc(-c2ccn(-c3cc(N4CCOCC4)c4nc(C(=O)NC5CC5)n(C)c4n3)n2)c1` [Ex. 309]: the inhibition at 0.001 µM at PIKFYVE [5] (setting [7]) lay in the range of 52 to 100%.

With `Cc1cccc(-c2ccn(-c3nc4[nH]c(C(=O)NC5COC5)nc4c(N4CCOCC4)c3F)n2)c1` [Ex. 310], the inhibition at 0.003 µM on PIKFYVE [5] (setting [6]) was found to be 0%.

Consider `Cc1cccc(-c2ccn(-c3nc(N4CCOCC4)c4sc(CO)cc4n3)n2)c1` [Ex. 311], for which, on PIKFYVE [5] (setting [7]), the inhibition at 0.001 µM lay in the range of 52 to 100%.

Take `Cc1cccc(-c2ccn(-c3nc4[nH]c(C(=O)N5CCC(N6CCC6)C(F)C5)nc4c(N4CCOCC4)c3F)n2)c1` (centres unmarked) [Ex. 312]: the inhibition at 0.003 µM at PIKFYVE [5] (setting [6]) is 10%.

As for `Cc1cccc(-c2ccn(-c3cc(N4CCOCC4)c4sc(CO)cc4n3)n2)c1` [Ex. 313], at PIKFYVE [5] (setting [7]), the inhibition at 0.001 µM lay within 52 to 100%.

As to `Cc1cccc(-c2ccn(-c3nc(N4CCOCC4)c4nc(CO)[nH]c4n3)n2)c1` [Ex. 314], at PIKFYVE [5] (setting [6]), the inhibition at 0.001 µM was 40%.

As for `Cc1cccc(-c2ccn(-c3nc(N4CCOCC4)c4nc(CO)n(C)c4n3)n2)c1` [Ex. 315], the inhibition at 0.001 µM at PIKFYVE [5] (setting [6]) was determined as 47%.

As to `Cc1cccc(-c2ccn(-c3cc(N4CCOCC4)c4nc(COCc5ccccc5)[nH]c4n3)n2)c1` [Ex. 316], the inhibition at 0.001 µM at PIKFYVE [5] (setting [7]) lay in the range of 52 to 100%.

Turning to `Cc1cccc(-c2ccn(-c3cc(N4CCOCC4)c4nc(CO)[nH]c4n3)n2)c1` [Ex. 317], the inhibition at 0.001 µM at PIKFYVE [5] (setting [7]) was 52 to 100%.

With `NC(=O)c1ncn([C@@H]2O[C@H](CO)[C@@H](O)[C@H]2O)n1` [ribavirin, reference compound], the CC50 in the series with MDCK cells is > 1000 µM.
